Test results: ChEMBL document CHEMBL4152362, “Discovery of DS-6930, a potent selective PPARγ modulator. Part II: Lead optimization” (Bioorg Med Chem, 2018)
pEC50: −log10 of the molar value. Converted amounts (≈) assume the structure as drawn. The source made the active and inactive calls. No cut-off for these calls is given here.

Key:
[1] = Oral bioavailability in cynomolgus monkey at 3 mg/kg by LC-MS/MS; format: ADME, organism-based, Macaca fascicularis; conditions: in vivo
[2] = Tmax in Zucker diabetic fatty rat at 3 mg/kg, po dosed once daily for 14 days and followed by additional administration on day 15; format: ADME, organism-based; conditions: in vivo
[3] = Cmax in Zucker diabetic fatty rat at 3 mg/kg, po dosed once daily for 14 days and followed by additional administration on day 15; format: ADME, organism-based; parameters: dose 3 mg/kg, route oral; conditions: in vivo
[4] = Metabolic stability in rat liver microsomes after 0.5 hrs; format: ADME, microsome; conditions: read-out: Stability
[5] = Volume of distribution at steady state in cynomolgus monkey at 1 mg/kg, iv by LC-MS/MS; format: ADME, organism-based, Macaca fascicularis; conditions: in vivo, read-out: Vdss
[6] = Clearance in cynomolgus monkey at 1 mg/kg, iv by LC-MS/MS; format: ADME, organism-based, Macaca fascicularis; conditions: in vivo
[7] = 1-octanol/PBS distribution co-efficient, log D of the compound at […] at pH 7.4 after 30 mins by HPLC-MS/MS method; format: physicochemical
[8] = Cmax in cynomolgus monkey at 3 mg/kg, po by LC-MS/MS; format: ADME, organism-based, Macaca fascicularis; parameters: dose 3 mg/kg, route oral; conditions: in vivo
[9] = Metabolic stability in cynomolgus monkey liver microsomes after 0.5 hrs; format: ADME, Macaca fascicularis, microsome; conditions: read-out: Stability
[10] = Tmax in cynomolgus monkey at 3 mg/kg, po by LC-MS/MS; format: ADME, organism-based, Macaca fascicularis; conditions: in vivo
[11] = Half life in cynomolgus monkey at 3 mg/kg, po by LC-MS/MS; format: ADME, organism-based, Macaca fascicularis; conditions: in vivo
[12] = tested on: Rattus norvegicus; assay: Antidiabetic activity in Zucker diabetic fatty rat assessed as reduction in plasma glucose level at 3 mg/kg, po administered once daily for 14 days measured on day 15 relative to control; format: functional; parameters: scale not given: the % may be the effect or the level left
[13] = AUC (0 to 24 hrs) in Zucker diabetic fatty rat at 3 mg/kg, po dosed once daily for 14 days and followed by additional administration on day 15; format: ADME, organism-based; parameters: time < 24 hr, dose 3 mg/kg, route oral; conditions: in vivo
[14] = AUClast in cynomolgus monkey at 3 mg/kg, po by LC-MS/MS; format: ADME, organism-based, Macaca fascicularis; parameters: dose 3 mg/kg, time 0 - last, route oral; conditions: in vivo
[15] = Metabolic stability in human liver microsomes after 0.5 hrs; format: ADME, microsome; conditions: read-out: Stability
[16] = biological target: T1, Peroxisome proliferator-activated receptor gamma (Homo sapiens) (UniProt P37231); assay: Agonist activity at recombinant human GAL4-DBD fused PPARgamma LBD expressed in COS7 cells at 10 uM after 24 hrs by luciferase reporter gene assay relative to rosiglitazone; format: cell-based
T1 sequence (whole entry): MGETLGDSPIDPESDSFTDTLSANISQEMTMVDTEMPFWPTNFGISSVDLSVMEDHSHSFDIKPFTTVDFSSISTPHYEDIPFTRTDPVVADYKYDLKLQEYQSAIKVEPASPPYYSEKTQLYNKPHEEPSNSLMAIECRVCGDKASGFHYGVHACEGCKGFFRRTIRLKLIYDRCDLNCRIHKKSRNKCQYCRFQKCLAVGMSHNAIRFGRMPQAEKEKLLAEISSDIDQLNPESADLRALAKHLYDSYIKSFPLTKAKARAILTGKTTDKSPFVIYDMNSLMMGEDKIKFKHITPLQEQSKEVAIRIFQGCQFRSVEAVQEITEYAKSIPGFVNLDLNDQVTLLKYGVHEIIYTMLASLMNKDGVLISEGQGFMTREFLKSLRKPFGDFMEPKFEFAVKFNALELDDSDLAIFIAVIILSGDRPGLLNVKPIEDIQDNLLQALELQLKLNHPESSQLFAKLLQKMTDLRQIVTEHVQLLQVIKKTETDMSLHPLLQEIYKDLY

[17] = tested on: Rattus norvegicus; assay: Toxicity in Zucker diabetic fatty rat assessed as body weight gain at 3 mg/kg, po administered once daily for 14 days relative to control; format: organism-based; conditions: in vivo, 336 h
[18] = biological target: T2, Peroxisome proliferator-activated receptor delta (Homo sapiens) (UniProt Q03181); assay: Agonist activity at PPARdelta (unknown origin) at 10 uM
T2 sequence (whole entry): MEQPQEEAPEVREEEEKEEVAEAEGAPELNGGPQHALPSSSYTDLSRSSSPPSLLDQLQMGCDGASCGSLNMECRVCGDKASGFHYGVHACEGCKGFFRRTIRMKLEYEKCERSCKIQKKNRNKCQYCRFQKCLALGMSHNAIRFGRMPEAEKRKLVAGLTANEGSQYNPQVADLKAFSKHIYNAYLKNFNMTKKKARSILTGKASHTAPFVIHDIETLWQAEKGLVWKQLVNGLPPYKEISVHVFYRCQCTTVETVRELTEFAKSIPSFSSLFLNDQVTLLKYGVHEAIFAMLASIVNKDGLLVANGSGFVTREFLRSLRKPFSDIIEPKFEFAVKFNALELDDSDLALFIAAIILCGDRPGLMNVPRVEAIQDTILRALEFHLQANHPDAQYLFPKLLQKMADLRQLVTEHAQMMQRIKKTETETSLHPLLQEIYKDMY

[19] = biological target: T3, Peroxisome proliferator-activated receptor gamma (Homo sapiens, UniProt P37231); assay: Agonist activity at recombinant human GAL4-DBD fused PPARgamma LBD expressed in COS7 cells after 24 hrs by luciferase reporter gene assay; format: cell-based
T3 sequence (P37231 whole entry): T1 sequence (whole entry)

[20] = biological target: T4, Peroxisome proliferator-activated receptor alpha (Homo sapiens) (UniProt Q07869); assay: Agonist activity at recombinant human GAL4-DBD fused PPARalpha LBD expressed in COS7 cells at 10 uM after 24 hrs by luciferase reporter gene assay relative to 2-(4-tert-Butylphenoxy)-3-[4-[2-[(4-pyridin-2-ylbenzoyl)amino]ethoxy] phenyl]propionic acid; format: cell-based
T4 sequence (whole entry): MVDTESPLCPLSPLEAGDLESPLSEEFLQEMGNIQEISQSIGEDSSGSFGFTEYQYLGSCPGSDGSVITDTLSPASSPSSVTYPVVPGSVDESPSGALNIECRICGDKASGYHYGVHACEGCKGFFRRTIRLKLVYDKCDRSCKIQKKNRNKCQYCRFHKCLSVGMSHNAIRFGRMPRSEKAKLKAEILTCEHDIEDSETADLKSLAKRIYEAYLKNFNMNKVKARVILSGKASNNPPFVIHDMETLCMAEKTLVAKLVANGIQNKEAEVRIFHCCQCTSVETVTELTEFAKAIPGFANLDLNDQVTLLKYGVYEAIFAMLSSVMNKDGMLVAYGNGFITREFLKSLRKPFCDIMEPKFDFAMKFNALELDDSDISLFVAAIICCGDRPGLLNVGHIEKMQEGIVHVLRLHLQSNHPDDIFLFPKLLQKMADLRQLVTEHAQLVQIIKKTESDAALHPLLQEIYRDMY

[21] = Aqueous thermodynamic solubility of the compound in pH 6.8 solution up to 4 hrs by HPLC-UV analysis; format: physicochemical; conditions: read-out: Therm_solubility
[22] = biological target: T5, Peroxisome proliferator-activated receptor alpha (Homo sapiens, UniProt Q07869); assay: Agonist activity at recombinant human GAL4-DBD fused PPARalpha LBD expressed in COS7 cells after 24 hrs by luciferase reporter gene assay; format: cell-based
T5 sequence (Q07869 whole entry): T4 sequence (whole entry)

[23] = Apparent permeability of the compound after 4 hrs by PAMPA; format: ADME
[24] = Cmax in Zucker diabetic fatty rat at 0.3 mg/kg, po administered once daily for 21 days followed by additional administration on day 22; format: ADME, organism-based; parameters: dose 0.3 mg/kg, route oral; conditions: in vivo
[25] = tested on: Rattus norvegicus; assay: Antidiabetic activity in Zucker diabetic fatty rat assessed as reduction in plasma glucose level at 0.3 mg/kg, po administered once daily for 21 days measured on day 22 relative to control; format: functional; parameters: scale not given: the % may be the effect or the level left
[26] = Tmax in Zucker diabetic fatty rat at 0.3 mg/kg, po administered once daily for 21 days followed by additional administration on day 22; format: ADME, organism-based; conditions: in vivo
[27] = AUC (0 to 24 hrs) in Zucker diabetic fatty rat at 0.3 mg/kg, po administered once daily for 21 days followed by additional administration on day 22; format: ADME, organism-based; parameters: dose 0.3 mg/kg, time < 24 hr, route oral; conditions: in vivo
[28] = tested on: Hepatocyte; assay: Cytotoxicity against F344/DuCrlCrlj rat primary hepatocytes assessed as reduction in cell viability at 10 to 100 uM after 24 hrs by LDH release assay; format: cell-based
[29] = tested on: Hepatocyte; assay: Cytotoxicity against F344/DuCrlCrlj rat primary hepatocytes assessed as reduction in mitochondrial enzyme activity at 10 to 100 uM after 24 hrs by WST8 assay; format: cell-based
[30] = tested on: Rattus norvegicus; assay: Antidiabetic activity in Zucker diabetic fatty rat assessed as reduction in plasma glucose level administered orally once daily for 21 days measured on day 22; format: functional, organism-based

Tmax [2] [h] | Cmax [3] [ng/mL] | remaining at 0.5 h [4] [%] | logD at 0.5 h [7] | AUC at 24 h [13] [ng·h/mL] | remaining at 0.5 h [15] [%] | Emax [16] [%] | Activity [18] | pEC50 [19] | Emax [20] [%] | solubility thermodynamic at 4 h [21] [µg/mL] | pEC50 [22] | Papp at 4 h [23] [×10⁻⁶ cm/s] | SMILES | Activity [12] [%] | Activity [17] [%] | further results
3.2 | 180 | 92 | 1.4 | 2490 |  |  |  |  |  |  |  |  | Cc1cnc(Oc2ccc3nc(COc4cccc(C(=O)O)c4)n(C)c3c2)c(C)c1 [listing 1 of 2 here] | 57 |  | bioavailability [1]: 89%; Vd [5]: 0.36 L/kg; clearance [6]: 2.06 mL/min/kg; Cmax [8]: 2250 ng/mL; remaining at 0.5 h [9]: 80%; Tmax [10]: 5 h; half-life [11]: 13.5 h; AUC(0-t) [14]: 23500 ng·h/mL
2 | 600 | 71 | 2.5 | 4080 | 76 | 79 | inactive | 7.60 | 23 | 4.3 (≈ 10.4 µM) | < 5.00 | 31.5 | Cn1c(COc2cccc(C(=O)O)c2)nc2ccc(Oc3ccc4c(c3)CCC4)nc21 | 70.4 | 14 | 
 |  |  |  |  |  |  |  |  |  |  |  |  | Cc1cnc(Oc2ccc3nc(COc4cccc(C(=O)[O-])c4)n(C)c3c2)c(C)c1.Cc1cnc(Oc2ccc3nc(COc4cccc(C(=O)[O-])c4)n(C)c3c2)c(C)c1.[Ca+2] |  |  | Cmax [24]: 79.2 ng/mL; Activity [25]: 47%; Tmax [26]: 1.8 h; AUC at 24 h [27]: 861 ng·h/mL
2 | 420 |  |  | 3610 |  |  |  |  |  |  |  |  | Cc1cnc(Oc2ccc3nc(COc4cccc(C(=O)[O-])c4)n(C)c3c2)c(F)c1.[Na+] | 65.7 | 10.8 | 
2.4 | 130 |  | 1.9 | 1400 | 100 | 61 |  | 7.05 | 6 | 9.9 (≈ 22.3 µM) | < 5.00 | 16.1 | Cn1c(COc2cccc(C(=O)O)c2)nc2ccc(Oc3ncc(Cl)cc3Cl)cc21 | 53.3 | 10.1 | 
2 | 450 | 87 | 1.3 | 3910 | 90 | 79 |  |  | 5 | 10 (≈ 23.4 µM) | < 5.00 | 11.8 | Cn1c(COc2cccc(C(=O)O)c2)nc2ccc(Oc3ncc(Cl)cc3F)cc21 | 70.6 | 13.8 | Activity [28]: Non-Toxic; bioavailability [1]: 31%; Vd [5]: 0.5 L/kg; clearance [6]: 1.66 mL/min/kg; Cmax [8]: 1190 ng/mL; remaining at 0.5 h [9]: 91%; Tmax [10]: 3.25 h; half-life [11]: 8.84 h; Activity [29]: Non-Toxic; AUC(0-t) [14]: 9940 ng·h/mL
2 | 510 | 100 | 1.7 | 2520 |  | 58 | inactive | 7.35 | 38 | 33 (≈ 84.7 µM) | < 5.00 | 12.6 | Cc1ccc(Oc2ccc3nc(COc4cccc(C(=O)O)c4)n(C)c3n2)cc1 | 37.6 | 6.8 | 
2 | 410 | 81 | 1.6 | 2410 | 100 | 55 | inactive | 7.70 | 22 | 70 (≈ 168 µM) | < 5.00 | 16.5 | Cn1c(COc2cccc(C(=O)O)c2)nc2cnc(Oc3ccc4c(c3)CCC4)cc21 | 1.3 | 6.3 | 
 |  |  |  |  |  |  | inactive |  | 13 |  |  |  | Cc1cnc(Oc2ccc3nc(COc4cccc(C(=O)O)c4)n(C)c3c2)c(C)c1 [listing 2 of 2 here] |  |  | Activity [30]: Dose-dependent effect
2.4 | 120 | 81 | 1.8 | 1250 | 85 | 92 |  | 7.68 | 7 | 3.9 (≈ 9.2 µM) | < 5.00 | 13.7 | Cc1cc(Cl)cnc1Oc1ccc2nc(COc3cccc(C(=O)O)c3)n(C)c2c1 | 54.1 | 18.5 | 
2 | 630 | 89 | 1.4 | 3390 | 92 | 89 | inactive | 7.03 | 20 | 17 (≈ 40.7 µM) | < 5.00 | 9.1 | Cn1c(COc2cccc(C(=O)O)c2)nc2ccc(Oc3ccc4c(c3)OCC4)nc21 | 55.3 | 7.1 | Activity [28]: Non-Toxic; bioavailability [1]: 27%; Vd [5]: 1.97 L/kg; clearance [6]: 2.73 mL/min/kg; Cmax [8]: 460 ng/mL; remaining at 0.5 h [9]: 88%; Tmax [10]: 1.5 h; half-life [11]: 13.3 h; Activity [29]: Non-Toxic; AUC(0-t) [14]: 4910 ng·h/mL
4.4 | 66 | 100 | 1.2 | 1010 | 100 | 66 |  | 7.15 | 3 | 17 (≈ 41.5 µM) | < 5.00 | 16.2 | Cn1c(COc2cccc(C(=O)O)c2)nc2ccc(Oc3ccc(Cl)cn3)cc21 | 14.8 | 0.2 | 
